“And” between values parts separate entries of the source, which are not always exact repeats. Identical values can stand only once. “Also recorded” adds a separate entry of the source. Like-named read-outs stand apart in the source and are kept apart here. Marks after values point to notes of the source that are not given here.
Legend:
[1] = tested on: human mammary carcinoma MX-1 xenograft; parameters: Toxicity toward Nude Mice: key to the marks not given beside the values; settings: for Toxicity toward Nude Mice: based on body weight decrease or lethality; for Therapeutic Effect against MX-1 Xenograft: based on tumor volume reduction vs untreated control
Protocol: DMSO was used as a vehicle for epothilones. Each mouse received ≦40 μL DMSO in all experiments.
Athymic nude mice (nu/nu) were used for MX-1 and MCF-7/Adr human mammary carcinoma xenografts. Mice were obtained from Taconic Laboratory Animals and Service (Germantown, N.Y.: outbred, Swiss background).

[2] = tested on: human ovarian adenocarcinoma SK-OV-3
B16 Melanoma = assay type: in vivo, B6D2F1 mice
Protocol: Body weight was determined at 0, 2, 4, 6, 8, 10 and 12 days. […] Injections were started on day 1. […] Body weight was determined at 0, 2, 4, 6, 8, 10 and 12 days. […] Injections were started on day 1.

[3] = 40 mg/kg i.p. d18-26, extended after d8-16, day 24
[4] = 40 mg/kg i.p. d18-26, extended after d8-16, day 26
[5] = 40 mg/kg i.p. d18-26, extended after d8-16, day 28
[6] = dEpo B 15 mg/kg i.v. Q2Dx5 from day 9
[7] = dEpo B 15 mg/kg i.v. Q2Dx5 from day 9, day 13
[8] = dEpo B 15 mg/kg i.v. Q2Dx5 from day 9, day 15
[9] = dEpo B 15 mg/kg i.v. Q2Dx5 from day 9, day 17
[10] = dEpo B 15 mg/kg i.v. Q2Dx5 from day 9, day 19
[11] = i.p., Cremophor-EtOH, 15 mg/kg Q2D x 5 (dose of dEpoB)
[12] = i.p., DMSO, 35 mg/kg Q2D x 5 (dose of dEpoB)
[13] = i.v. infusion 6 hr, Cremophor-EtOH, 30 mg/kg Q2D x 5 (dose of dEpoB)
[14] = i.v. infusion 24 hr, Cremophor-EtOH, 60 mg/kg Q4D x 2 (dose of dEpoB)
[15] = i.v. injection, DMSO, 15 mg/kg Q2D x 5 (dose of dEpoB)
[16] = i.v. injection, DMSO, 24 mg/kg Q2D x 5 (dose of dEpoB)
[17] = 35 mg/kg i.p. Q2Dx5 from day 9, day 15
[18] = 35 mg/kg i.p. Q2Dx5 from day 9, day 17
[19] = 35 mg/kg i.p. Q2Dx5 from day 9, day 19

`C/C1=C/C[C@@H](/C(C)=C/c2csc(C)n2)OC(=O)C[C@H](O)C(C)(C)C(=O)[C@H](C)[C@@H](O)[C@@H](C)CCC1` [Desoxyepothilone B, desoxyepothilone B] was tested, and the “Tumor Disappearance” value ([1]; 40 mg/kg i.p. d18-26, extended after d8-16, day 22) was 2/10, the “Average Body Weight Change” value [1, 3] was -2.4 g and the “Tumor Disappearance” value [1, 3] was 3/10. For the same compound, the “Average Body Weight Change” value [1, 4] was -1.4 g, the “Tumor Disappearance” value [1, 4] was 5/10 and the “Average Body Weight Change” value [1, 5] was -1.2 g. The “Tumor Disappearance” value [1, 5] was 5/10, the “lethality and body weight” value ([1]; 15 and 25 mg/kg i.p. days 7-15) was “no lethality nor body weight reduction” and the therapeutic outcome ([1]; 25-40 mg/kg, Q2Dx5, i.p.) was “marked tumor regression and cures”. For the same compound, the therapeutic outcome ([1]; 6 hr i.v. infusion) was “full cure”, the “Toxicity Death” value [1, 6] was 4/6^b and the “Tumor Disapp.” value [1, 6] was 0/6. For the same compound, the “Average Body Weight Change” value [1, 7] was 0 g, the “Average Tumor Size (T/C)” value [1, 7] was 0.47 and the “Average Body Weight Change” value [1, 8] was -0.6 g. For the same compound, the “Average Tumor Size (T/C)” value [1, 8] was 0.30, the “Average Body Weight Change” value [1, 9] was -1.1 g and the “Average Tumor Size (T/C)” value [1, 9] was 0.10. The “Average Body Weight Change” value [1, 10] was -2.6 g, the “Average Tumor Size (T/C)” value [1, 10] was 0.04 and the tumor size treated/control ([1]; dEpoB 35 mg/kg i.p. Q2Dx5, day 19) was 0.02. For the same compound, the “mice with tumor disappearing on day 28 (or day 31)” value ([1]; extended 40 mg/kg i.p. every other day from day 18, 5 more doses) was 5 out of 10, the “Average Tumor Disappearance Duration” value ([1]; extended experiment, Desoxyepo B 40 mg/kg i.p., in 5/10 mice) was 44 (5/10) Day and the “Toxicity toward Nude Mice” value [1, 11] was “+++++”. The “Therapeutic Effect against MX-1 Xenograft” value [1, 11] was “+”, the “Toxicity toward Nude Mice” value [1, 12] was “++” and the “Therapeutic Effect against MX-1 Xenograft” value [1, 12] was “+++++”. For the same compound, the “Toxicity toward Nude Mice” value [1, 13] was “++”, the “Therapeutic Effect against MX-1 Xenograft” value [1, 13] was “+++++” and the “Toxicity toward Nude Mice” value [1, 14] was “+++”. The “Therapeutic Effect against MX-1 Xenograft” value [1, 14] was “+++++”, the “Toxicity toward Nude Mice” value [1, 15] was “+++” and the “Therapeutic Effect against MX-1 Xenograft” value [1, 15] was “++”. For the same compound, the “Toxicity toward Nude Mice” value [1, 16] was “+++”, the “Therapeutic Effect against MX-1 Xenograft” value [1, 16] was “++” and the “# Died of toxicity” value ([1]; mouse, in vivo) was 0/10. The “Average Body Weight (change), Day 14” value ([1]; mouse, in vivo) was -2.7 g, the “Average Body Weight (change), Day 16” value ([1]; mouse, in vivo) was -4.0 g and the “Average Body Weight (change), Day 18” value ([1]; mouse, in vivo) was -4.5 g. For the same compound, the “Average Body Weight (change), Day 20” value ([1]; mouse, in vivo) was -6.8 g, the “Average Body Weight Change, Day 20” value ([1]; mouse, in vivo) was -1.7 g and the “Average Body Weight Change, Day 22” value ([1]; mouse, in vivo) was -2.4 g. For the same compound, the “Average Body Weight Change, Day 24” value ([1]; mouse, in vivo) was -2.4 g, the “Average Body Weight Change, Day 26” value ([1]; mouse, in vivo) was -1.4 g and the “Average Body Weight Change, Day 28” value ([1]; mouse, in vivo) was -1.2 g. For the same compound, the “Average Tumor Size (T/C), Day 14” value ([1]; mouse, in vivo) was 0.19 T/C, the “Average Tumor Size (T/C), Day 16” value ([1]; mouse, in vivo) was 0.10 T/C and the “Average Tumor Size (T/C), Day 18” value ([1]; mouse, in vivo) was 0.03 T/C. For the same compound, the Died ([1]; mouse, in vivo) was 0/10, the “Lowest Average Tumor Size (T/C)” value ([1]; mouse, in vivo) was 0 T/C and the “Therapeutic Effects dEpoB vs Taxol” value ([1]; mouse, in vivo) was “≅”. The “Tumor Disappearance” value ([1]; mouse, in vivo) was 3/3 and 5/5, the “Tumor Disappearance, Day 20” value ([1]; mouse, in vivo) was 2.10^b and the “Tumor Disappearance, Day 22” value ([1]; mouse, in vivo) was 2/10. The “Tumor Disappearance, Day 24” value ([1]; mouse, in vivo) was 3/10, the “Tumor Disappearance, Day 26” value ([1]; mouse, in vivo) was 5/10 and the “Tumor Disappearance, Day 28” value ([1]; mouse, in vivo) was 5/10. The “Therapeutic effect Rank Order” value ([1]; mouse, in vivo, ip) was “dEpoB > Camptothecin >; also recorded: dEpoB > Adriamycin > Taxol ®”, the “Therapeutic effect Rank Order” value ([1]; mouse, in vivo, iv) was “Taxol ® ≈ dEpoB” and the “Tumor Size, individual mice, Day 60” value ([1]; surviving mice 4, 5, 9, 35 mg/kg on day 8-16, 40 mg/kg on day 18-26, then no treatment) was 0 mm^3 (2×) and 4 mm^3. The “Toxicity Death” value ([2]; 35 mg/kg i.p. Q2Dx5 from day 9) was 0/6, the “Tumor Disapp.” value ([2]; 35 mg/kg i.p. Q2Dx5 from day 9) was 0/6 and the “Average Body Weight Change” value ([2]; 35 mg/kg i.p. Q2Dx5 from day 9, day 13) was -1.7 g. The “Average Body Weight Change” value [2, 17] was -2.1 g, the “Average Tumor Size (T/C)” value [2, 17] was 0.57 and the “Average Body Weight Change” value [2, 18] was -2.1 g. The “Average Tumor Size (T/C)” value [2, 18] was 0.33, the “Average Body Weight Change” value [2, 19] was -2.4 g and the “Average Tumor Size (T/C)” value [2, 19] was 0.35. The “Average Tumor Size (T/C)” value ([2]; 35 mg/kg i.p. Q2Dx5 from day 9, day 21) was 0.28, the “Toxicity Death” value [2, 6] was 4/6^b and the “Tumor Disapp.” value [2, 6] was 0/6. For the same compound, the “Average Body Weight Change” value [2, 7] was 0 g, the “Average Body Weight Change” value [2, 8] was -0.6 g and the “Average Tumor Size (T/C)” value [2, 8] was 0.86. For the same compound, the “Average Body Weight Change” value [2, 9] was -1.1 g, the “Average Tumor Size (T/C)” value [2, 9] was 0.56 and the “Average Body Weight Change” value [2, 10] was -2.6 g. For the same compound, the “Average Tumor Size (T/C)” value [2, 10] was 0.50, the “Average Tumor Size (T/C)” value ([2]; dEpo B 15 mg/kg i.v. Q2Dx5 from day 9, day 21) was 0.44 and the tumor size treated/control ([2]; dEpoB 35 mg/kg i.p. Q2Dx5, day 21) was 0.28. The “Lowest Average Tumor Size (T/C)” value ([2]; mouse, in vivo) was 0.17 T/C, the “Therapeutic Effects dEpoB vs Taxol” value ([2]; mouse, in vivo) was “<<” and the “Therapeutic effect Rank Order” value ([2]; mouse, in vivo) was “Taxol ® ≈ dEpoB”. For the same compound, the “Tumor Disappearance” value ([2]; mouse, in vivo) was 0, the “Therapeutic effect Rank Order” value ([2]; mouse, in vivo, iv) was “Taxol ® > dEpoB” and the “Average Tumor Volume (T/C)” value (B16 Melanoma; 20 mg/kg QD1-4,7-8, day 11) was 0.33. For the same compound, the mice died (B16 Melanoma; 20 mg/kg QDx6 from day 1 (FIG. 44)) was 0 of 8.

From patent publication US6603023B2 (priority 1996, dated 2003)
